Experimental findings from US6417359B1, “Pharmaceutical compositions and methods for use” (priority 1998, dated 2002) are described below.

Experiment [1] has as its system ganglia-type receptors. Kind of experiment: Determination of interaction with ganglion receptors. The conditions noted are these: percentage of maximal activation induced by (S)-(−)-nicotine. The experiment is classed as cell-based. The protocol:
Determination of Interaction with Ganglion Receptors The determination of the interaction of the compounds with ganglionic receptors was carried out in accordance with the techniques described in U.S. Pat. No. 5,597,919 to Dull et al. The maximal activation for individual compounds (Emax) was determined as a percentage of the maximal activation induced by (S)-(−)-nicotine. Reported Emax values represent the amount released relative to (S)-(−)-nicotine on a percentage basis.

Experiment [2] addresses nicotinic receptors associated with dopamine release. The experiment can be described thus: Dopamine release (receptor activation/inhibition). The experiment is classed as biochemical. The conditions noted are these: for Emax, dopamine release: amount released relative to (S)-(−)-nicotine. The protocol:
Determination of Receptor Activation/Inhibition and Dopamine Release
Dopamine release was measured using the techniques described in U.S. Pat. No. 5,597,919 to Dull et al. Release is expressed as a percentage of release obtained with a concentration of (S)-(−)-nicotine resulting in maximal effects. Reported EC50 values are expressed in nM, and Emax values represent the amount released relative to (S)-(−)-nicotine or tetramethylammonium ion (TMA), on a percentage basis.
Reported IC50 values are expressed in nM and represent the concentration resulting in 50% inhibition of agonist induced receptor activation. Emax values represent the amount released relative to (S)-(−)-nicotine on a percentage basis.

For experiment [3], the target named is muscle-type receptors (Homo sapiens, UniProt P02708+P07510+P11230+Q07001). The experiment can be described thus: Determination of interaction with muscle receptors. As to conditions: percentage of maximal activation induced by (S)-(−)-nicotine. The class given is cell-based. The protocol:
Determination of Interaction with Muscle Receptors
The determination of the interaction of the compounds with muscle receptors was carried out in accordance with the techniques described in U.S. Pat. No. 5,597,919 to Dull et al. The maximal activation for individual compounds (Emax) was determined as a percentage of the maximal activation induced by (S)-(−)-nicotine. Reported Emax values represent the amount released relative to (S)-(−)-nicotine on a percentage basis.

muscle-type receptors, sequence (P02708 whole entry): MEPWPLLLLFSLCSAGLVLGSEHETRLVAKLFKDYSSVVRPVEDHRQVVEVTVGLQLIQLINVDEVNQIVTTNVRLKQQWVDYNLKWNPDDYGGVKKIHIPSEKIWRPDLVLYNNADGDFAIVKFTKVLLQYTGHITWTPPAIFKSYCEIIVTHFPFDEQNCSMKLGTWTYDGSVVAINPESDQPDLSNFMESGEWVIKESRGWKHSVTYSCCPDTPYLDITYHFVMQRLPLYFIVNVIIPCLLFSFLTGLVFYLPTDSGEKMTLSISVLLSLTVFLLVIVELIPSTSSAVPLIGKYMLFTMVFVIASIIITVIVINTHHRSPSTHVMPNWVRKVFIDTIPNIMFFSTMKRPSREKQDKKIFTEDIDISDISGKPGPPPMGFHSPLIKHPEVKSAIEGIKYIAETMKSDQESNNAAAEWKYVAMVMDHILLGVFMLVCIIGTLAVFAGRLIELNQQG
muscle-type receptors, sequence (P11230 24-501): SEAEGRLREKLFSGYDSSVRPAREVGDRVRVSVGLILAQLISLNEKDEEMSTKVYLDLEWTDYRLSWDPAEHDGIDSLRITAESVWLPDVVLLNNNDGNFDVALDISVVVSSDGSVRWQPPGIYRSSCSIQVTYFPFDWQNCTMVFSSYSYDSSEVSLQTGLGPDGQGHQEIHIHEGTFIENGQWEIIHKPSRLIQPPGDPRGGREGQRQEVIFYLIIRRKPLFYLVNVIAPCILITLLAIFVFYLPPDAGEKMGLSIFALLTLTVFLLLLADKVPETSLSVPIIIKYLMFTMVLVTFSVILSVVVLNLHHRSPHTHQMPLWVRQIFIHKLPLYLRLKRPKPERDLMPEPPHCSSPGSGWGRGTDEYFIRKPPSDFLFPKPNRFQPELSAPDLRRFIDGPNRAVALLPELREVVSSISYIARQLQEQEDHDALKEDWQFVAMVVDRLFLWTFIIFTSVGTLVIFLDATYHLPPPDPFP
muscle-type receptors, sequence (P07510 23-517): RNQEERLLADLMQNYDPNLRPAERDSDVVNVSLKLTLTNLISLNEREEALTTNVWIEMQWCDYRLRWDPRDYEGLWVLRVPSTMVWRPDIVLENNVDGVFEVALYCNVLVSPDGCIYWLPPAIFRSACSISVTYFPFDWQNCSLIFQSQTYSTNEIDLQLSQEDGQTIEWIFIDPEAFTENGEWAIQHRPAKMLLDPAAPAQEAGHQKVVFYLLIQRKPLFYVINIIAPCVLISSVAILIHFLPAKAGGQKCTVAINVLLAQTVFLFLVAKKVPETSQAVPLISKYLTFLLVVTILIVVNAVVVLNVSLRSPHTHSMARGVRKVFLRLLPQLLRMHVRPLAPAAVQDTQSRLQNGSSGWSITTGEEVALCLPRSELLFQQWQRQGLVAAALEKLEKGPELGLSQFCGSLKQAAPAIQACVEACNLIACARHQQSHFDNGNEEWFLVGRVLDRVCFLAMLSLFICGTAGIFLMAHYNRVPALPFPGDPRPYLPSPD
muscle-type receptors, sequence (Q07001 22-517): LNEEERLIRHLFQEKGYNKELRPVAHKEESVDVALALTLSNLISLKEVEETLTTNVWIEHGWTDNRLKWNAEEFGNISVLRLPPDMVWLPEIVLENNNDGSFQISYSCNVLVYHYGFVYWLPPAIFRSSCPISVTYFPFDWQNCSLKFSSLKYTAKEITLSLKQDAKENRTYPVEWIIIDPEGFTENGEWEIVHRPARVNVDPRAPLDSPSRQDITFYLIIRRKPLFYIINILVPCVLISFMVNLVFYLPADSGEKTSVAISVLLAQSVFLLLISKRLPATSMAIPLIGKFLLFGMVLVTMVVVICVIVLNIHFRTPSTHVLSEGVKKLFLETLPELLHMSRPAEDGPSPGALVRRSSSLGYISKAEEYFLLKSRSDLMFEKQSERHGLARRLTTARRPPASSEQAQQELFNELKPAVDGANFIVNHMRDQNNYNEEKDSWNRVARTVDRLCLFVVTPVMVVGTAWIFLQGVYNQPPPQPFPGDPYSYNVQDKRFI

For `Cl.Cl.Cl.Nc1cncc(C2C3CC4CC(C3)CN2C4)c1` (centres unmarked) [Sample No. 3, 1-aza-2-[5-amino-(3-pyridyl)]tricyclo[3.3.1.1^3,7]decane trihydrochloride], in experiment [1], the “Emax at ganglia-type receptors” value turned out to be 17%. In experiment [2], the EC50 was more than 100 µM and the “Emax, dopamine release” value amounted to 0%. Besides, the Emax in experiment [3] worked out at 75%.
With `CC(C)Oc1cncc(C2C3CC4CC(C3)CN2C4)c1` (centres unmarked) [Sample No. 5, 1-aza-2-[5-isopropoxy-(3-pyridyl)]tricyclo[3.3.1.1^3,7]decane], the “Emax at ganglia-type receptors” value in experiment [1] was 7%. Further, in experiment [2], the EC50 was more than 100 µM and the “Emax, dopamine release” value is recorded as 0%. In addition, in experiment [3], the Emax came out at 114%.
For `CCOc1cncc(C2C3CC4CC(C3)CN2C4)c1` (centres unmarked) [Sample No. 4, 1-aza-2-[5-ethoxy-(3-pyridyl)]-tricyclo-[3.3.1.1^3,7]decane], the “Emax at ganglia-type receptors” value in experiment [1] was 0%. In experiment [2], the EC50 was more than 100 µM and the “Emax, dopamine release” value turned out to be 0%. Also, the IC50 in experiment [2] (concentration resulting in 50% inhibition of agonist induced receptor activation) stood at 0.846 µM. In addition, the Emax in experiment [3] was 22%.
As for `c1cncc(C2C3CC4CC(C3)CN2C4)c1` (centres unmarked) [Sample No. 1, 1-aza-2-(3-pyridyl)-tricyclo[3.3.1.1^3,7]decane], in experiment [1], the “Emax at ganglia-type receptors” value was determined as 27%. Also, in experiment [2], the “Emax, dopamine release” value is listed as 0%. This molecule also gave an Emax in experiment [3] of 21%.
For `Brc1cncc(C2C3CC4CC(C3)CN2C4)c1` (centres unmarked) [Sample No. 2, 1-aza-2-[5-bromo(3-pyridyl)]tricyclo[3.3.1.1^3,7]decane], the “Emax at ganglia-type receptors” value in experiment [1] is recorded as 50%. In addition, in experiment [2], the EC50 is more than 100 µM and the “Emax, dopamine release” value is given as 0%. The Emax in experiment [3] is 32%.
